Assay results as given in patent publication US9975907B2, “Pyrimidinones as PI3K inhibitors” (Incyte Corporation, priority 2009, dated 2018).
Where a name gives a salt, the structure may show the parent alone.

Tests used:
PI3Kδ (p110δ/p85α) [1] = biological target: T1, PI3Kδ (p110δ/p85α) (Homo sapiens (Human), UniProt O00329); assay: PI3Kδ Scintillation Proximity Assay (Assay A3); format: biochemical; conditions: column b, Assay A3 (SPA), 20 μM ATP
Summary of the method: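 Radiometric SPA: 33P-labelled […] bound to WGA beads after EDTA/ATP quench, counted by scintillation, fitted against log inhibitor for IC50. Reaction: 4 nM PI3Kδ (p110δ/p85α), 20 μM ATP, 20 μM PIP2, pH 6.7 MOPS buffer with MgCl2, DTT, CHAPS, 0.5% DMSO, room temperature, 210 min.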

PI3Kδ (p110δ/p85α) [2] = biological target: T1, PI3Kδ (p110δ/p85α); assay: AlphaScreen Assay for PI3Kδ (Assay A1); format: biochemical; conditions: column a, 20 μM ATP
Excerpt: PI3-Kinase luminescent assay kit including lipid kinase substrate, D-myo-phosphatidylinositol 4,5-bisphosphate (PtdIns(4,5)P2)D (+)-sn-1,2-di-O-octanoylglyceryl, 3-O-phospho linked (PIP2), biotinylated I(1,3,4,5)P4, PI(3,4,5)P3 Detector Protein, was purchased from Echelon Biosciences (Salt Lake City, Utah). AlphaScreen™ GST Detection Kit including donor and acceptor beads was purchased from PerkinElmer Life Sciences (Waltham, Mass.). PI3Kδ (p110δ/p85α) was purchased from Millipore (Bedford, Mass.). ATP, MgCb, DTT, EDTA, HEPES and CHAPS were purchased from Sigma-Aldrich (St. Louis, Mo.).
AlphaScreen™ Assay for PI3Kδ
The kinase reaction was conducted in 384-well REMP plate from Thermo Fisher Scientific in a final volume of 40 μL. Inhibitors were first diluted serially in DMSO and added to the plate wells before the addition of other reaction components. The final concentration of DMSO in the assay was 2%. The PI3K assays were carried out at room temperature in 50 mM HEPES, pH 7.4, 5 mM MgCl2, 50 mM NaCl, 5 mM DTT and CHAPS 0.04%. Reactions were initiated by the addition of ATP, the final reaction mixture consisted of 20 μM PIP2, 20 μM ATP, 1.2 nM PI3Kδ were incubated for 20 min. 10 μL of reaction mixture was then transferred to 5 μL 50 nM biotinylated I(1,3,4,5)P4 in quench buffer: 50 mM HEPES pH 7.4, 150 mM NaCl, 10 mM EDTA, 5 mM DTT, 0.1% Tween-20, followed with the addition of 10 μL AlphaScreen™ donor and acceptor beads suspended in quench buffer containing 25 nM PI(3,4,5)P3 detector protein. The final concentration of both donor and acceptor beads is […]. After plate sealing, the plate was incubated in a dark location at room temperature for 2 hours. The activity of the product was determined on Fusion-alpha microplate reader (Perkin-Elmer). IC50 determination was performed by fitting the curve of percent control activity versus the log of the inhibitor concentration using the GraphPad Prism 3.0 software.

T1 sequence (O00329 whole entry, species assumed): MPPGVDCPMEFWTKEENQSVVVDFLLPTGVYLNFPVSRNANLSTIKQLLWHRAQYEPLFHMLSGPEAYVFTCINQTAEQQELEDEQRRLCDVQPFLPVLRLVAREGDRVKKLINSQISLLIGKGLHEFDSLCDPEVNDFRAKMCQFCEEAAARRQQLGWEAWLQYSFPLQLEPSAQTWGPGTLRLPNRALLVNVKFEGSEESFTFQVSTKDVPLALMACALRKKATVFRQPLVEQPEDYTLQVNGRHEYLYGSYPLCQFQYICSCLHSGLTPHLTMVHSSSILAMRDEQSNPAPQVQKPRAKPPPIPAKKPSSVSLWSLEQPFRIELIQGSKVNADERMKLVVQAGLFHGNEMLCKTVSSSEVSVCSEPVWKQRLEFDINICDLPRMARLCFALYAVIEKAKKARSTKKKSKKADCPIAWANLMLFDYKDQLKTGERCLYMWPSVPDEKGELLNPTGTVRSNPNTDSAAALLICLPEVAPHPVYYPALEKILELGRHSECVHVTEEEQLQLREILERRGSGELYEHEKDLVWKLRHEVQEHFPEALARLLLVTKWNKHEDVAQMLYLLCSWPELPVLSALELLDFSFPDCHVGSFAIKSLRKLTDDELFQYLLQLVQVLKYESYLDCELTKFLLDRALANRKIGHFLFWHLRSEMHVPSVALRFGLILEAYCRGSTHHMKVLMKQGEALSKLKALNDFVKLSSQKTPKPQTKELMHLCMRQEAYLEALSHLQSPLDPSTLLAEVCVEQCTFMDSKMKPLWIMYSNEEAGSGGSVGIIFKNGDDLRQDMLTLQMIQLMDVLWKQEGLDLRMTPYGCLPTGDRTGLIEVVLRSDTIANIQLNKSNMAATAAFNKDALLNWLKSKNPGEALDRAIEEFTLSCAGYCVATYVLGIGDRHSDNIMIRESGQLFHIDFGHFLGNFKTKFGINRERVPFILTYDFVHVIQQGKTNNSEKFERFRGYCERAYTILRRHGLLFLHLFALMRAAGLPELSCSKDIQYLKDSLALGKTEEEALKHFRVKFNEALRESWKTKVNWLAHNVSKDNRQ
T1 sequence (P27986 whole entry partner, species assumed): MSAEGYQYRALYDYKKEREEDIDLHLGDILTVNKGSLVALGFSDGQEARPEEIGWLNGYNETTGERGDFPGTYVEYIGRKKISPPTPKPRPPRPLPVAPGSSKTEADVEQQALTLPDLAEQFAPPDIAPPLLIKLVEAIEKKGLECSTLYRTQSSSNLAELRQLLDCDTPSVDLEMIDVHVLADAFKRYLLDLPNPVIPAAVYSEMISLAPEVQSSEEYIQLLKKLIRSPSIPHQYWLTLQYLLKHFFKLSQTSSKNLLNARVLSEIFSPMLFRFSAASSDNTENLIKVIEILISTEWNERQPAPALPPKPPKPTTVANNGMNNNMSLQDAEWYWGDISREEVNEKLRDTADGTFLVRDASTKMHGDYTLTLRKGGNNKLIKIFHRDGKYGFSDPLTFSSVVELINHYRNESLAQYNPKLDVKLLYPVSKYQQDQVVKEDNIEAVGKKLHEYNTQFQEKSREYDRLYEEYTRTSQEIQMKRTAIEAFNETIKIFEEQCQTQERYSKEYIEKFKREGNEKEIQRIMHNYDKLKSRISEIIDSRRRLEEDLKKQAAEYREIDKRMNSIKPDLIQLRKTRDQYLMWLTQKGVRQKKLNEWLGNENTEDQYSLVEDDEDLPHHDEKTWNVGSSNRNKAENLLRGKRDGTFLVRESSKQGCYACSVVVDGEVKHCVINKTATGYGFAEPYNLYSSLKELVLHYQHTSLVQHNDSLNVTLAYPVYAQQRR

Row | IC50 (PI3Kδ (p110δ/p85α) [1]) [nM] | IC50 (PI3Kδ (p110δ/p85α) [2]) [nM] | Compound
1 | 100 to 500 | 100 to 500 | CCC(Nc1ncnc2[nH]cnc12)c1nc2cccc(C)n2c(=O)c1-c1cccnc1F (stereo not drawn) [Example 6, 3-(2-fluoropyridin-3-yl)-6-methyl-2-[1-(9H-purin-6-ylamino)propyl]-4H-pyrido[1,2-a]pyrimidin-4-one]
2 | 50 to 100 | 100 to 500 | CCC(Nc1ncnc2[nH]cnc12)c1nc2cccc(C)n2c(=O)c1-c1cc(F)cc(F)c1 (stereo not drawn) [Example 5, 3-(3,5-difluorophenyl)-6-methyl-2-[1-(9H-purin-6-ylamino)propyl]-4H-pyrido[1,2-a]pyrimidin-4-one]
3 | < 50 | 50 to 100 | CCC(Nc1ncnc2[nH]cnc12)c1nc2cccc(C)n2c(=O)c1-c1ccccc1 (stereo not drawn) [Example 2, 6-methyl-3-phenyl-2-[1-(9H-purin-6-ylamino)propyl]-4H-pyrido[1,2-a]pyrimidin-4-one]
4 | 50 to 100 | 100 to 500 | CCC(Nc1ncnc2[nH]cnc12)c1nc2cccc(C)n2c(=O)c1-c1cccc(F)c1 (stereo not drawn) [Example 4, 3-(3-fluorophenyl)-6-methyl-2-[1-(9H-purin-6-ylamino)propyl]-4H-pyrido[1,2-a]pyrimidin-4-one]
5 | 100 to 500 | 100 to 500 | CCC(Nc1ncnc2[nH]cnc12)c1nc2cccc(C)n2c(=O)c1-c1cncc(F)c1 (stereo not drawn) [Example 3, 3-(5-fluoropyridin-3-yl)-6-methyl-2-[1-(9H-purin-6-ylamino)propyl]-4H-pyrido[1,2-a]pyrimidin-4-one]

Continued, compound first:

Row | Compound | IC50 (PI3Kδ (p110δ/p85α) [1]) [nM] | IC50 (PI3Kδ (p110δ/p85α) [2]) [nM]
6 | Cc1cccc2nc(C(C)n3cnc4c(N)ncnc43)c(-c3ccccc3)c(=O)n12 (stereo not drawn) [Example 1, 2-[1-(6-amino-9H-purin-9-yl)ethyl]-6-methyl-3-phenyl-4H-pyrido[1,2-a]pyrimidin-4-one] | 100 to 500 | 100 to 500
7 | Cc1csc2nc(C(C)Nc3ncnc4[nH]cnc34)c(-c3ccccn3)c(=O)n12 (stereo not drawn) [Example 14, 3-methyl-7-[1-(9H-purin-6-ylamino)ethyl]-6-pyridin-2-yl-5H-[1,3]thiazolo[3,2-a]pyrimidin-5-one] | 50 to 100 | 50 to 100
8 | Cc1csc2nc(C(C)Nc3ncnc4[nH]cnc34)c(-c3ccccc3)c(=O)n12 (stereo not drawn) [Example 8, 3-methyl-6-phenyl-7-[1-(9H-purin-6-ylamino)ethyl]-5H-[1,3]thiazolo[3,2-a]pyrimidin-5-one] | < 50 | 50 to 100
9 | CCC(Nc1ncnc2[nH]cnc12)c1nc2cccc(C)n2c(=O)c1-c1cn[nH]c1 (stereo not drawn) [Example 7, 6-methyl-2-[1-(9H-purin-6-ylamino)propyl]-3-(1H-pyrazol-4-yl)-4H-pyrido[1,2-a]pyrimidin-4-one] | 50 to 100 | 100 to 500
10 | Cc1cccc2nc(C(C)Nc3ncnc4[nH]cnc34)c(-c3ccccc3F)c(=O)n12 (stereo not drawn) [Example 59, 3-(2-Fluorophenyl)-6-methyl-2-[1-(9H-purin-6-ylamino)ethyl]-4H-pyrido[1,2-a]pyrimidin-4-one trifluoroacetic acid salt] | < 50 | 
11 | Cc1csc2nc(C(C)Nc3ncnc4[nH]cnc34)c(-c3ccc(F)cc3)c(=O)n12 (stereo not drawn) [Example 22, 6-(4-fluorophenyl)-3-methyl-7-[1-(9H-purin-6-ylamino)ethyl]-5H-[1,3]thiazolo[3,2-a]pyrimidin-5-one trifluoroacetic acid salt] | 50 to 100 | 
12 | CC(Nc1nc(N)nc2[nH]cnc12)c1nc2sccn2c(=O)c1-c1cccc(F)c1 (stereo not drawn) [Example 26, 7-{1-[(2-amino-9H-purin-6-yl)amino]ethyl}-6-(3-fluorophenyl)-5H-[1,3]thiazolo[3,2-a]pyrimidin-5-one] | 100 to 500 | 
